pIC50: −log10 of the molar value.
Biological target: T1, integrin α4β7 (Homo sapiens, UniProt P13612+P26010)
T1 sequence (P13612 34-977 limits assumed): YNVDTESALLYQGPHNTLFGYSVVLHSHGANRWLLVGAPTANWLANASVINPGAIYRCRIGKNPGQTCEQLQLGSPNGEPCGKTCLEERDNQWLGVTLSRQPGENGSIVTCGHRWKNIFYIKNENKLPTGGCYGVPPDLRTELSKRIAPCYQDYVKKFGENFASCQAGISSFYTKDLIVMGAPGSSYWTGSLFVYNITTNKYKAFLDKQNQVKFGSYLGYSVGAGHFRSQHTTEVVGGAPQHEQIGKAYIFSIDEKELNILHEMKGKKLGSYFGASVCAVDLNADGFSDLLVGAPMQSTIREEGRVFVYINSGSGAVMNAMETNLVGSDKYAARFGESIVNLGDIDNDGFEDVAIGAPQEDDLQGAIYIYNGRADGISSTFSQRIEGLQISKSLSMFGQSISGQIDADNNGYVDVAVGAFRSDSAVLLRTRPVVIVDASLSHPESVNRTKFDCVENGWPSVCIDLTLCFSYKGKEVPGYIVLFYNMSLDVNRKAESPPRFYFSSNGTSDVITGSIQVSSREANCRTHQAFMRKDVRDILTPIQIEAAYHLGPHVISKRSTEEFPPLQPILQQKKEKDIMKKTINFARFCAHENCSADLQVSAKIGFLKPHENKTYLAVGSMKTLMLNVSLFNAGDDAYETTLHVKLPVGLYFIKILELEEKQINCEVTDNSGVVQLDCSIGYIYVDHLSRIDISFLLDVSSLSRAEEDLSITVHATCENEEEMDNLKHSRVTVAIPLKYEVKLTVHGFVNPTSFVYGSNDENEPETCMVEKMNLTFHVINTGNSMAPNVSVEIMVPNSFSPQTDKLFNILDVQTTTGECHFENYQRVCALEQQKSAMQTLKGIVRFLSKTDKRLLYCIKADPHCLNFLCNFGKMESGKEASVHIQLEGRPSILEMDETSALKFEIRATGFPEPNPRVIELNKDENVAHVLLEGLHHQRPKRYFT
T1 sequence (P26010 20-723 limits assumed): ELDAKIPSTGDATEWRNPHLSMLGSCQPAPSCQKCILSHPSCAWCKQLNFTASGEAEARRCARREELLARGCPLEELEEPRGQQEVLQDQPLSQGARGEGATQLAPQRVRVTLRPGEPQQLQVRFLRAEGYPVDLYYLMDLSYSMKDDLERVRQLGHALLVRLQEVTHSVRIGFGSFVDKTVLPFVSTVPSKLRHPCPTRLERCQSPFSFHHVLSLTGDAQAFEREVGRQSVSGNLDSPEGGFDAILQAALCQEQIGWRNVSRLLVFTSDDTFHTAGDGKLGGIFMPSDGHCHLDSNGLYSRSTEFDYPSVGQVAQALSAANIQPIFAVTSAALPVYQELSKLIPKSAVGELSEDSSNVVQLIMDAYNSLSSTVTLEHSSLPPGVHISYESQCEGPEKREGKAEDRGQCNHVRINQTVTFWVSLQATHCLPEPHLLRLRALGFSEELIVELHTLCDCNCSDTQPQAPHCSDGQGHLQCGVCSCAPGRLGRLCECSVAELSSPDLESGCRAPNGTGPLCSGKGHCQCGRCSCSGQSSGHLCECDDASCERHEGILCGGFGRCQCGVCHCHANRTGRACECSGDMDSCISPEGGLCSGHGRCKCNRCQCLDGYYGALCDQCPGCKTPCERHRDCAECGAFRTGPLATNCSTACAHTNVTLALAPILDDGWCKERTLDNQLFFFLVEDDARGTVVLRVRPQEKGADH
Assay: Fluorescence Polarization (FP) assay for α4β7 binding, competition with fluorescein-labeled peptide
Conditions: 6.5 nM integrin α4β7, 3 nM fluorescein-labeled peptide, 2 mM MnCl2; read-out: FP Assay (Example 5) IC50
Experimental: Three in vitro assays were used to examine the α4β7 mechanistic process used by cells: 1) ligand:receptor affinity, 2) the avidity of those interactions on a cell's surface, and 3) how those interactions fare under an imposing force. In Example 5, a Fluorescence Polarization (FP) assay is used to measure compound activity through binding competition with the fluorescein-labeled peptide. In Example 6, the potency of compounds against α4β7 is measured in the cell-based ligand binding assay (LBA), using RPMI 8866 cells incubated with the compound samples in competition with soluble MAdCAM-1 ligand. In Example 7, activity of compounds is evaluated in a cell adhesion assay that mechanistically tests what occurs in vivo when trafficking cells utilize α4β7 to adhere to MAdCAM-1 expressing HEVs of the gut during the extravasation process. In the cell adhesion assay of Example 7, a MAdCAM1-(Fc) is coated on plastic, and α4β7 expressing cells (RPMI-8866) are allowed to adhere to the coated surface in the presence of the test compounds. Next, the force of washing with buffer is applied to cells thereby testing the strength of that adhesion. Unattached cells are removed and the remaining adherent cells are quantified.
Fluorescence Polarization (FP) assays were used to measure compound activity through binding competition with the fluorescein-labeled peptide […]{Lys(FITC)}. In the assay, 6.5 nM of integrin α4β7 was incubated with the test compound in 2 mM manganese chloride, 0.1 mM calcium chloride, 20 mM HEPES buffer at pH 7.3, 150 mM sodium chloride, 0.01% Triton X-100, 2% DMSO, and 3 nM of the fluorescein-labeled peptide. Running the assays in 384-well plates, the integrin protein was pre-incubated with the test compounds for 15 minutes at 22° C. before the fluorescein-labeled peptide was added. After the fluorescein-labeled peptide was added, the assay was incubated at 22° C. for 1 hour and fluorescence polarization was measured. IC50 values were determined by non-linear regression, four-parameter curve fitting.

SMILES	pIC50
Cc1cc(-c2c(C)cc(F)cc2C)cc([C@H](CC(=O)O)NC(=O)[C@H](CC(C)C)n2cc(CCN(C)C)cc(C(F)F)c2=O)c1F [I-P2, (3S)-3-(4,4′-difluoro-2′,5,6′-trimethyl-[1,1′-biphenyl]-3-yl)-3-(2-(3-(difluoromethyl)-5-(2-(dimethylamino)ethyl)-2-oxopyridin-1(2H)-yl)-4-methylpentanamido)propanoic Acid]	≥ 8.00
Cc1ccn([C@@H](NC(C)C)C(=O)N[C@@H](CC(=O)O)c2cncc(-c3c(C)cccc3C)c2)c(=O)c1 [Example C-7, reference compound]	≥ 8.00
Cc1cc(C)c(-c2cc(C(F)(F)F)c(F)c([C@H](CC(=O)O)NC(=O)[C@H](CC(C)C)n3cc(CCCN(C)C)c(C(F)(F)F)cc3=O)c2F)c(C)c1 [HZ-P2, (3S)-3-(2,4-difluoro-2′,4′,6′-trimethyl-5-(trifluoromethyl)biphenyl-3-yl)-3-(2-(5-(3-(dimethylamino)propyl)-2-oxo-4-(trifluoromethyl)pyridin-1(2H)-yl)-4-methylpentanamido)propanoic Acid]	≥ 8.00
Cc1cc(-c2c(C)ccc(F)c2C)cc([C@H](CC(=O)O)NC(=O)C(CC(C)C)n2cc(CCN3CCC3)c(C(F)(F)F)cc2=O)c1F (single isomer, unassigned) [AF-P2]	≥ 8.00
Cc1cc(C)c(-c2cc(C(F)(F)F)c(F)c([C@H](CC(=O)O)NC(=O)[C@H](CC(C)C)n3cc(CCN4CCC4)c(C(F)(F)F)cc3=O)c2F)c(C)c1 [IG-P2, (3S)-3-(2-(5-(2-(azetidin-1-yl)ethyl)-2-oxo-4-(trifluoromethyl)pyridin-1(2H)-yl)-4-methylpentanamido)-3-(2,4-difluoro-2′,4′,6′-trimethyl-5-(trifluoromethyl)biphenyl-3-yl)propanoic Acid]	≥ 8.00
Cc1ccn([C@@H](CC(C)C)C(=O)N[C@H](CC(=O)O)c2cncc(-c3c(C)cccc3C)c2)c(=O)c1 [Example C-28, reference compound]	6.30 to 8.00
Cc1ccc(F)c(C)c1-c1cc(C2CC2)c(F)c([C@H](CC(=O)O)NC(=O)[C@H](CC(C)C)n2cc(CCN3CCC3)c(C(F)(F)F)cc2=O)c1F [HH-P2, (3S)-3-(2-(5-(2-(azetidin-1-yl)ethyl)-2-oxo-4-(trifluoromethyl)pyridin-1(2H)-yl)-4-methylpentanamido)-3-(5-cyclopropyl-2,3′,4-trifluoro-2′,6′-dimethyl-[1,1′-biphenyl]-3-yl)propanoic Acid]	≥ 8.00
Cc1cc(C)c(-c2cc(C(F)(F)F)c(F)c([C@H](CC(=O)O)NC(=O)[C@H](CC(C)C)n3cc(CCN(C)C)c(C(F)(F)F)cc3=O)c2F)c(C)c1 [IF-P2, (3S)-3-(2,4-difluoro-2′,4′,6′-trimethyl-5-(trifluoromethyl)-[1,1′-biphenyl]-3-yl)-3-(2-(5-(2-(dimethylamino)ethyl)-2-oxo-4-(trifluoromethyl)pyridin-1(2H)-yl)-4-methylpentanamido)propanoic Acid]	≥ 8.00

Next, values leading:

pIC50	SMILES
≥ 8.00	Cc1cc(F)c(C)c(C)c1-c1cc(C(F)(F)F)c(F)c([C@H](CC(=O)O)NC(=O)[C@H](CC(C)C)n2cc(CCN3CCC3)c(C(F)(F)F)cc2=O)c1F [KT-P2, (3S)-3-(2-(5-(2-(azetidin-1-yl)ethyl)-2-oxo-4-(trifluoromethyl)pyridin-1(2H)-yl)-4-methylpentanamido)-3-(2,4,4′-trifluoro-2′,3′,6′-trimethyl-5-(trifluoromethyl)-[1,1′-biphenyl]-3-yl)propanoic Acid]
≥ 8.00	Cc1cc(C2CC2)cc(C)c1-c1cc(C(F)(F)F)c(F)c([C@H](CC(=O)O)NC(=O)[C@H](CC(C)C)n2cc(CCCN(C)C)c(C(F)(F)F)cc2=O)c1F [HU-P2, (3S)-3-(4′-cyclopropyl-2,4-difluoro-2′,6′-dimethyl-5-(trifluoromethyl)-[1,1′-biphenyl]-3-yl)-3-(2-(5-(3-(dimethylamino)propyl)-2-oxo-4-(trifluoromethyl)pyridin-1(2H)-yl)-4-methylpentanamido)propanoic Acid]
≥ 8.00	Cc1cc(C)c(-c2cc(C)c(F)c([C@H](CC(=O)O)NC(=O)[C@H](CC(C)C)n3cc(CCCN(C)C)c(C(F)(F)F)cc3=O)c2F)c(C)c1F [IW-P2, (3S)-3-(2-(5-(3-(dimethylamino)propyl)-2-oxo-4-(trifluoromethyl)pyridin-1(2H)-yl)-4-methylpentanamido)-3-(2,3′,4-trifluoro-2′,4′,5,6′-tetramethyl-[1,1′-biphenyl]-3-yl)propanoic Acid]
≥ 8.00	Cc1cc(C)c(-c2cc(C3CC3)c(F)c([C@H](CC(=O)O)NC(=O)[C@H](CC(C)C)n3cc(CCN4CCC4)c(C(F)(F)F)cc3=O)c2F)c(C)c1 [HM-P2, (3S)-3-(2-(5-(2-(azetidin-1-yl)ethyl)-2-oxo-4-(trifluoromethyl)pyridin-1(2H)-yl)-4-methylpentanamido)-3-(5-cyclopropyl-2,4-difluoro-2′,4′,6′-trimethylbiphenyl-3-yl)propanoic Acid]
≥ 8.00	Cc1cc(F)cc(C)c1-c1cc(C(F)(F)F)c(F)c([C@H](CC(=O)O)NC(=O)[C@H](CC(C)C)n2cc(CCCN(C)C)c(C(F)(F)F)cc2=O)c1F [HW-P2, (3S)-3-(2-(5-(3-(dimethylamino)propyl)-2-oxo-4-(trifluoromethyl)pyridin-1(2H)-yl)-4-methylpentanamido)-3-(2,4,4′-trifluoro-2′,6′-dimethyl-5-(trifluoromethyl)-[1,1′-biphenyl]-3-yl)propanoic Acid]

Reference: patent US11370773B1, “Inhibiting human integrin (alpha-4) (beta-7)” (Morphic Therapeutic, Inc., priority 2019, dated 2022)
